Data set [1] in a line: Partition coefficient, log P in phosphate buffer at pH 7.4. The class given is physicochemical.
Data set [2] is described as follows: Biodistribution in tail vein injected Sprague-Dawley rat brain after 5 to 60 mins. Format: ADME, organism-based. To be noted: iv, read-out: Drug uptake.
A short description of data set [3]: Inhibition of PKA.

A value given as a limit tells only on which side of the number the result lay.

For `CN(CCNC/C=C/c1ccc(Br)cc1)S(=O)(=O)c1cccc2cnccc12`, the logD in data set [1] was determined as 2.93. Further, the tissue uptake in data set [2] was less than 0.2 %ID/g. In addition, in data set [3], the IC50 was 1280 nM.
`O=S(=O)(NCCNC/C=C/c1ccc(Br)cc1)c1cccc2cnccc12` had an IC50 in data set [3] of 940 nM.

By logD is commonly meant the decadic logarithm of the distribution of all forms, ionised or not, between an organic phase and buffer at a given pH. Low readings indicate a more hydrophilic compound, high ones a more lipophilic compound. The IC50 is the concentration needed to halve the response being measured. Low values mean inhibition by little substance, high ones a need for much substance.

Source of the values: ChEMBL document CHEMBL1149891, “Rationally designed PKA inhibitors for positron emission tomography: Synthesis and cerebral biodistribution of N-(2-(4-bromocinnamylamino)ethyl)-N-[11C]methyl-isoquinoline-5-sulfonamide” (Bioorg Med Chem, 2008).
